Consider 21 compounds from patent publication US12509444B2, “Compounds and methods for CD73 modulation and indications therefor” (Plexxikon Inc., priority 2019, dated 2025).

Each structure is given as a SMILES string.

The target of experiment [1] is T1, Human CD73 (amino acid residues 27-549) (Homo sapiens, UniProt P21589).
T1 construct: Human CD73 (amino acid residues 27-549); His tag (N); made in house; host or cells: E. coli
T1 sequence (P21589 27-549): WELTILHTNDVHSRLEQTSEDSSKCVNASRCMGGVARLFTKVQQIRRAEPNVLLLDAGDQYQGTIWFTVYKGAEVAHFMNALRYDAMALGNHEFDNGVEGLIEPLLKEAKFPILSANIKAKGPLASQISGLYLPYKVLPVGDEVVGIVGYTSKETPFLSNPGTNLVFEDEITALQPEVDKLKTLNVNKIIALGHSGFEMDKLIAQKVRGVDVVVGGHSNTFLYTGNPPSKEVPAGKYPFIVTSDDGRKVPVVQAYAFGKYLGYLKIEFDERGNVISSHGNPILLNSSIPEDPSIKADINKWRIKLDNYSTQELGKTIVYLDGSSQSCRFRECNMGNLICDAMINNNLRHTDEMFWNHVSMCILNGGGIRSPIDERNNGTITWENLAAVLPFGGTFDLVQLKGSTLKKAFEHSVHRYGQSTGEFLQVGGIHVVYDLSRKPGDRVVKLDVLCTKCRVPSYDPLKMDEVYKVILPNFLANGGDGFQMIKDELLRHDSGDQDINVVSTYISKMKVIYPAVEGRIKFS
Kind of experiment: CD73 enzymatic assay (luciferase-based indirect assay, CellTiter-Glo). Type of experiment: biochemical. Particulars: 0.4 nM CD73, 150 μM AMP, 1 hour at room temperature. The method in brief:
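His-tagged human CD73 (27-549) from E. coli, 0.4 nM, with 150 μM AMP in 50 mM HEPES pH 7.4, 0.01% Tween 20; 1 h at room temperature. AMP remaining read by CellTiter-Glo 2.0 luminescence with 1 μM final ATP after 30 min. IC50 from nonlinear regression of % inhibition.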

The next experiment addresses T2, human CD73 (Homo sapiens, UniProt P21589).
T2 construct: expressed in transfected cells
T2 sequence (P21589 27-549): T1 sequence (P21589 27-549)
Kind of experiment: Inhibitor activity against CD73 in cell based assay (CD73 expressing CHO-K1 cells). To be noted: CHO-K1 cells expressing human CD73, 150 μM AMP, 4 hours of incubation; read-out: CHO-K1 CELL VARIANT: CD73 IC50. In outline:
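Stably transfected CHO-K1 cells expressing human CD73 (1×10^4/well) incubated 4 h with compound (8-point 1:3 titration, top 10 μM final, 0.2% DMSO) and 150 μM AMP. Residual AMP in supernatant measured by CellTiter-Glo luminescence with 1 μM ATP after 30 min at room temperature; IC50 by nonlinear regression of percent inhibition vs high/low controls.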

`C[C@H]1C[C@@H](OC(=O)NC2CCC(F)(F)CC2)CN1c1cn[nH]c(=O)c1Cl` [P-0336, (3R,5S)-1-(5-chloro-6-oxo-1,6-dihydropyridazin-4-yl)-5-methylpyrrolidin-3-yl (4,4-difluorocyclohexyl)carbamate]: the IC50 (usually the concentration at which inhibition is half-maximal) lay in the range of 0.001 to 10 µM in experiment [1] and 10 to 100 µM at human CD73.

Regarding `C[C@@H]1C[C@@H](OC(=O)NC2CCC(F)(F)CC2)CN1c1cn[nH]c(=O)c1Cl` [P-0337, (3R,5R)-1-(5-chloro-6-oxo-1,6-dihydropyridazin-4-yl)-5-methylpyrrolidin-3-yl (4,4-difluorocyclohexyl)carbamate], the values for the IC50 (in experiment [1]; at human CD73) were 0.001 to 10 µM and 10 to 100 µM, respectively.

Take `O=C(NC1CC(CO)(CCl)C1)O[C@@H]1CCN(c2cn[nH]c(=O)c2Cl)C1` (stereo partly drawn) [P-0338, (R)-1-(5-chloro-6-oxo-1,6-dihydropyridazin-4-yl)pyrrolidin-3-yl (3-(chloromethyl)-3-(hydroxymethyl)cyclobutyl) carbamate]: the IC50 (in experiment [1]; on human CD73) was 0.001 to 10 µM in each case.

Regarding `O=C(N[C@H]1CC[C@@H](F)CC1)O[C@@H]1CCN(c2cn[nH]c(=O)c2Cl)C1` [P-0339, (R)-1-(5-chloro-6-oxo-1,6-dihydropyridazin-4-yl)pyrrolidin-3-yl ((1s,4S)-4-fluorocyclohexyl)carbamate], the IC50 (in experiment [1]; on human CD73) was 0.001 to 10 µM in each case.

As for `CC(=O)N1CC[C@H](NC(=O)O[C@@H]2CCN(c3cn[nH]c(=O)c3Cl)C2)C1` [P-0340, (R)-1-(5-chloro-6-oxo-1,6-dihydropyridazin-4-yl)pyrrolidin-3-yl ((S)-1-acetylpyrrolidin-3-yl)carbamate], the IC50 (in experiment [1]; on human CD73) was 0.001 to 10 µM in each case.

Regarding `CS(=O)(=O)N1CC[C@H](NC(=O)O[C@@H]2CCN(c3cn[nH]c(=O)c3Cl)C2)C1` [P-0341, (R)-1-(5-chloro-6-oxo-1,6-dihydropyridazin-4-yl)pyrrolidin-3-yl ((S)-1-(methylsulfonyl)pyrrolidin-3-yl)carbamate], the IC50 in experiment [1] fell in the range of 0.001 to 10 µM; at human CD73, 10 to 100 µM.

Regarding `O=C(N[C@H]1CCN(C(=O)c2ccccc2)C1)O[C@@H]1CCN(c2cn[nH]c(=O)c2Cl)C1` [P-0342, (R)-1-(5-chloro-6-oxo-1,6-dihydropyridazin-4-yl)pyrrolidin-3-yl ((S)-1-benzoylpyrrolidin-3-yl)carbamate], the values for the IC50 (in experiment [1]; on human CD73) were 0.001 to 10 µM and 10 to 100 µM, respectively.

Regarding `O=C(N[C@H]1CCN(C(=O)NC2CCCCC2)C1)O[C@@H]1CCN(c2cn[nH]c(=O)c2Cl)C1` [P-0343, (R)-1-(5-chloro-6-oxo-1,6-dihydropyridazin-4-yl)pyrrolidin-3-yl ((S)-1-(cyclohexylcarbamoyl)pyrrolidin-3-yl)carbamate], the results for the IC50 (in experiment [1]; at human CD73) were 0.001 to 10 µM and 10 to 100 µM, respectively.

`Cc1ccc(C(=O)N[C@H]2CC[C@H](NC(=O)O[C@@H]3CCN(c4cn[nH]c(=O)c4Cl)C3)CC2)cc1` [P-0344, (R)-1-(5-chloro-6-oxo-1,6-dihydropyridazin-4-yl)pyrrolidin-3-yl ((1r,4R)-4-(4-methylbenzamido)cyclohexyl) carbamate]: the IC50 (in experiment [1]; on human CD73) was 0.001 to 10 µM each time.

On to `O=C(Nc1ccc(C(F)(F)F)cc1)N[C@H]1CC[C@H](NC(=O)O[C@@H]2CCN(c3cn[nH]c(=O)c3Cl)C2)CC1` [P-0345, (R)-1-(5-chloro-6-oxo-1,6-dihydropyridazin-4-yl)pyrrolidin-3-yl ((1r,4R)-4-(3-(4-(trifluoromethyl)phenyl)ureido)cyclohexyl)carbamate], for which the IC50 (in experiment [1]; on human CD73) was 0.001 to 10 µM each time.

For the compound `O=C(Nc1cccc(C(=O)O)c1)N[C@H]1CC[C@H](NC(=O)O[C@@H]2CCN(c3cn[nH]c(=O)c3Cl)C2)CC1` [P-0346, 3-(3-((1R,4r)-4-(((((R)-1-(5-chloro-6-oxo-1,6-dihydropyridazin-4-yl)pyrrolidin-3-yl)oxy)carbonyl)amino)cyclohexyl)ureido)benzoic acid], the IC50 (in experiment [1]; on human CD73) was 0.001 to 10 µM in each case.

In the case of `O=C(Nc1ccc(C(=O)O)cc1)N[C@H]1CC[C@H](NC(=O)O[C@@H]2CCN(c3cn[nH]c(=O)c3Cl)C2)CC1` [P-0347, 4-(3-((1R,4r)-4-(((((R)-1-(5-chloro-6-oxo-1,6-dihydropyridazin-4-yl)pyrrolidin-3-yl)oxy)carbonyl)amino)cyclohexyl)ureido)benzoic acid], the IC50 (in experiment [1]; on human CD73) was 0.001 to 10 µM throughout.

Take `COc1c(N2CC[C@@H](OC(=O)NC3CCC(F)(F)CC3)C2)cn[nH]c1=O` [P-0348, (R)-1-(5-methoxy-6-oxo-1,6-dihydropyridazin-4-yl)pyrrolidin-3-yl (4,4-difluorocyclohexyl)carbamate]: the figures for the IC50 (in experiment [1]; on human CD73) were 0.001 to 10 µM and 10 to 100 µM, respectively.

For the compound `O=C(NC12CCC(CC1)C2)O[C@@H]1CCN(c2cn[nH]c(=O)c2Cl)C1` [P-0349, (R)-1-(5-chloro-6-oxo-1,6-dihydropyridazin-4-yl)pyrrolidin-3-yl bicyclo[2.2.1]heptan-1-ylcarbamate], the IC50 (in experiment [1]; at human CD73) was 0.001 to 10 µM in each case.

In the case of `CC1(C)CCCC1NC(=O)O[C@@H]1CCN(c2cn[nH]c(=O)c2Cl)C1` (stereo partly drawn) [P-0350, (R)-1-(5-chloro-6-oxo-1,6-dihydropyridazin-4-yl)pyrrolidin-3-yl (2,2-dimethylcyclopentyl)carbamate], the half-inhibitory concentration (IC50) (in experiment [1]; on human CD73) was 0.001 to 10 µM throughout.

Consider `CC1(C)CC(NC(=O)O[C@@H]2CCN(c3cn[nH]c(=O)c3Cl)C2)C1` [P-0351, (R)-1-(5-chloro-6-oxo-1,6-dihydropyridazin-4-yl)pyrrolidin-3-yl (3,3-dimethylcyclobutyl)carbamate], for which the IC50 (in experiment [1]; on human CD73) was 0.001 to 10 µM throughout.

As for `O=C(N[C@H]1CC[C@@H](Nc2ncccn2)CC1)O[C@@H]1CCN(c2cn[nH]c(=O)c2Cl)C1` [P-0352, (R)-1-(5-chloro-6-oxo-1,6-dihydropyridazin-4-yl)pyrrolidin-3-yl ((1s,4s)-4-(pyrimidin-2-ylamino)cyclohexyl)carbamate], the half-maximal inhibitory concentration (IC50) (in experiment [1]; at human CD73) was 0.001 to 10 µM in each case.

For the compound `CC(=O)N1CC[C@@H](NC(=O)O[C@@H]2CCN(c3cn[nH]c(=O)c3Cl)C2)C1` [P-0353, (R)-1-(5-chloro-6-oxo-1,6-dihydropyridazin-4-yl)pyrrolidin-3-yl ((R)-1-acetylpyrrolidin-3-yl)carbamate], the IC50 (in experiment [1]; at human CD73) was 0.001 to 10 µM throughout.

Regarding `O=C(N[C@@H]1CCN(C(=O)NC2CCCCC2)C1)O[C@@H]1CCN(c2cn[nH]c(=O)c2Cl)C1` [P-0354, (R)-1-(5-chloro-6-oxo-1,6-dihydropyridazin-4-yl)pyrrolidin-3-yl ((R)-1-(cyclohexylcarbamoyl)pyrrolidin-3-yl)carbamate], the IC50 (in experiment [1]; at human CD73) was 0.001 to 10 µM each time.

Take `CS(=O)(=O)N1CC[C@@H](NC(=O)O[C@@H]2CCN(c3cn[nH]c(=O)c3Cl)C2)C1` [P-0355, (R)-1-(5-chloro-6-oxo-1,6-dihydropyridazin-4-yl)pyrrolidin-3-yl ((R)-1-(methylsulfonyl)pyrrolidin-3-yl)carbamate]: the IC50 (in experiment [1]; at human CD73) was 0.001 to 10 µM throughout.

On to `CC(C)(O)[C@H]1CC[C@H](NC(=O)O[C@@H]2CCN(c3cn[nH]c(=O)c3Cl)C2)CC1` [P-0356, (R)-1-(5-chloro-6-oxo-1,6-dihydropyridazin-4-yl)pyrrolidin-3-yl ((1r,4R)-4-(2-hydroxypropan-2-yl)cyclohexyl)carbamate], for which the IC50 (in experiment [1]; on human CD73) was 0.001 to 10 µM each time.
